# Test results from ChEMBL document CHEMBL4507263, “Data for DCP probe BAY-474” (2021).
# Calls of active or inactive are those of the source. The rule behind the calls is not given here.
# Tests used:
# [1] = target: T1, Hepatocyte growth factor receptor (Homo sapiens, UniProt P08581); assay: Met (h) Millipore kinase activity assay; settings: Compound concentration 1.0 uM
# [2] = target: NUAK family SNF1-like kinase 1 (Homo sapiens) (UniProt O60285); assay: ARK5 (h) Millipore kinase activity assay; settings: Compound concentration 1.0 uM
# [3] = target: Adenosine receptor A2a (Homo sapiens) (UniProt P29274); settings: Compound concentration 10.0 uM
# Sequence of Adenosine receptor A2a (Homo sapiens) (P29274 whole entry): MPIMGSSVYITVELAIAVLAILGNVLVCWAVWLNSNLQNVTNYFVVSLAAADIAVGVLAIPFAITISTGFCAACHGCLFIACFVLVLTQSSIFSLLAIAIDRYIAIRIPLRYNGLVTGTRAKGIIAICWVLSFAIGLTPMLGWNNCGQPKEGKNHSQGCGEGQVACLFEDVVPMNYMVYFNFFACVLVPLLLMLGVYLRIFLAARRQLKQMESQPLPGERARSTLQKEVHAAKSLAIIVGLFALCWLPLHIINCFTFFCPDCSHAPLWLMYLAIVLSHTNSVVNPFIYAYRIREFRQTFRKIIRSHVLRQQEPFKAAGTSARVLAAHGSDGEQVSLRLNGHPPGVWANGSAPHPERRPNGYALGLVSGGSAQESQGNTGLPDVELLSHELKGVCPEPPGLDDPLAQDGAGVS
# [4] = target: T1, Hepatocyte growth factor receptor; assay: Cellular mechanistic assay using […] cells and p-MET; type: cell-based, MKN-45
# [5] = target: Sigma non-opioid intracellular receptor 1 (Homo sapiens) (UniProt Q99720); assay: Sigma 1 Eurofins-Panlabs radioligand binding assay; design: ligand concentration 8 nM; settings: Compound concentration 10.0 uM
# Sequence of Sigma non-opioid intracellular receptor 1 (Homo sapiens) (Q99720 whole entry): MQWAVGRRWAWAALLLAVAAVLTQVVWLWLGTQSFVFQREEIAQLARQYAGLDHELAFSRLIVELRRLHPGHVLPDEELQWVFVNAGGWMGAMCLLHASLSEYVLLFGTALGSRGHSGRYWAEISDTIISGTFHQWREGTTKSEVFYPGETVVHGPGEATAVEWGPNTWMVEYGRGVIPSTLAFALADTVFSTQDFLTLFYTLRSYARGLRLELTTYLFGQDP
# [6] = target: T2, Muscarinic acetylcholine receptor M2 (Homo sapiens) (UniProt P08172); settings: Compound concentration 10.0 uM
# T2 sequence (whole entry): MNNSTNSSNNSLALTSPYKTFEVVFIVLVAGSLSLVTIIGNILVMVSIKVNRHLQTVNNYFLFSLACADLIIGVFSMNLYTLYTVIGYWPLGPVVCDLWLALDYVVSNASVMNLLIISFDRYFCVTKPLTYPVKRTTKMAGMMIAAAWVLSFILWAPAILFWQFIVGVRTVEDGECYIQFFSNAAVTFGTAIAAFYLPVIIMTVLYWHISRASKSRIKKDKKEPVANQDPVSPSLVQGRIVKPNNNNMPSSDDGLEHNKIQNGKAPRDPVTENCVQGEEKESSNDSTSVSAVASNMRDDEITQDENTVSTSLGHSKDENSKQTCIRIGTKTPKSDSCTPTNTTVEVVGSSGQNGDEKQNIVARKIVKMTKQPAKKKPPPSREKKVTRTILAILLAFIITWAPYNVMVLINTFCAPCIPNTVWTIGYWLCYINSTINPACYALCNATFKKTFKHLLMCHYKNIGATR
# [7] = target: Tyrosine-protein kinase FRK (Homo sapiens) (UniProt P42685); assay: PTK5 (h) Millipore kinase activity assay; settings: Compound concentration 1.0 uM
# Sequence of Tyrosine-protein kinase FRK (Homo sapiens) (P42685 whole entry): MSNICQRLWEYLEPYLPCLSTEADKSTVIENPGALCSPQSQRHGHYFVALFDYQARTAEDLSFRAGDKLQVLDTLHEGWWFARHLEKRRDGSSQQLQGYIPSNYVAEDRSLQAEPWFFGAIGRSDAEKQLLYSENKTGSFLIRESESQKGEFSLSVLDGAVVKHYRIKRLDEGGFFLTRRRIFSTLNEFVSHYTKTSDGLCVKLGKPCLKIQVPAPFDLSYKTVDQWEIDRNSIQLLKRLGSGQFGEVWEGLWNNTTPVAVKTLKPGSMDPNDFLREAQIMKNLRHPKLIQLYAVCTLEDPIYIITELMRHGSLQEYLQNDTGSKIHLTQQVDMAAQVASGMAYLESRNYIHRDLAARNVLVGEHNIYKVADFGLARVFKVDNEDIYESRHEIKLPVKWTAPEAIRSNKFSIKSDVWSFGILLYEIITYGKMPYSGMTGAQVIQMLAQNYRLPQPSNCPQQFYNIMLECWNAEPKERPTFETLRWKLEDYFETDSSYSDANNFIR
# [8] = target: Tyrosine-protein kinase Fgr (Homo sapiens) (UniProt P09769); assay: Fgr (h) Millipore kinase activity assay; settings: Compound concentration 1.0 uM
# [9] = target: Calcium/calmodulin-dependent protein kinase type IV (Homo sapiens) (UniProt Q16566); assay: CaMKIV (h) Millipore kinase activity assay; settings: Compound concentration 1.0 uM
# [10] = target: Serine/threonine-protein kinase PAK 6 (Homo sapiens) (UniProt Q9NQU5); assay: PAK6 (h) Millipore kinase activity assay; settings: Compound concentration 1.0 uM
# [11] = target: MAP kinase-activated protein kinase 3 (Homo sapiens) (UniProt Q16644); assay: MAPKAP-K3 (h) Millipore kinase activity assay; settings: Compound concentration 1.0 uM
# [12] = target: Ephrin type-B receptor 4 (Homo sapiens) (UniProt P54760); assay: EphB4 (h) Millipore kinase activity assay; settings: Compound concentration 1.0 uM
# [13] = target: Tyrosine-protein kinase ABL1 (Homo sapiens) (UniProt P00519); settings: Compound concentration 1000.0 nM
# [14] = target: Homeodomain-interacting protein kinase 3 (Homo sapiens) (UniProt Q9H422); settings: Compound concentration 1000.0 nM
# [15] = target: Ribosomal protein S6 kinase alpha-6 (Homo sapiens) (UniProt Q9UK32); settings: Compound concentration 1000.0 nM
# [16] = target: Dual specificity mitogen-activated protein kinase kinase 2 (Homo sapiens) (UniProt P36507); settings: Compound concentration 1000.0 nM
# [17] = target: Protein kinase C theta type (Homo sapiens) (UniProt Q04759); settings: Compound concentration 1000.0 nM
# [18] = target: Mitogen-activated protein kinase kinase kinase 19 (Homo sapiens) (UniProt Q56UN5); settings: Compound concentration 1000.0 nM
# [19] = target: BDNF/NT-3 growth factors receptor (Homo sapiens) (UniProt Q16620); settings: Compound concentration 1000.0 nM
# [20] = target: Serine/threonine-protein kinase SIK2 (Homo sapiens) (UniProt Q9H0K1); settings: Compound concentration 1000.0 nM
# [21] = target: Cyclin-dependent kinase 19 (Homo sapiens) (UniProt Q9BWU1); settings: Compound concentration 1000.0 nM
# [22] = target: Serine/threonine-protein kinase 24 (Homo sapiens) (UniProt Q9Y6E0); settings: Compound concentration 1000.0 nM
# [23] = target: Ankyrin repeat and protein kinase domain-containing protein 1 (Homo sapiens) (UniProt Q8NFD2); settings: Compound concentration 1000.0 nM
# [24] = target: Serine/threonine-protein kinase PAK 5 (Homo sapiens) (UniProt Q9P286); settings: Compound concentration 1000.0 nM
# Sequence of Serine/threonine-protein kinase PAK 5 (Homo sapiens) (Q9P286 whole entry, looked up): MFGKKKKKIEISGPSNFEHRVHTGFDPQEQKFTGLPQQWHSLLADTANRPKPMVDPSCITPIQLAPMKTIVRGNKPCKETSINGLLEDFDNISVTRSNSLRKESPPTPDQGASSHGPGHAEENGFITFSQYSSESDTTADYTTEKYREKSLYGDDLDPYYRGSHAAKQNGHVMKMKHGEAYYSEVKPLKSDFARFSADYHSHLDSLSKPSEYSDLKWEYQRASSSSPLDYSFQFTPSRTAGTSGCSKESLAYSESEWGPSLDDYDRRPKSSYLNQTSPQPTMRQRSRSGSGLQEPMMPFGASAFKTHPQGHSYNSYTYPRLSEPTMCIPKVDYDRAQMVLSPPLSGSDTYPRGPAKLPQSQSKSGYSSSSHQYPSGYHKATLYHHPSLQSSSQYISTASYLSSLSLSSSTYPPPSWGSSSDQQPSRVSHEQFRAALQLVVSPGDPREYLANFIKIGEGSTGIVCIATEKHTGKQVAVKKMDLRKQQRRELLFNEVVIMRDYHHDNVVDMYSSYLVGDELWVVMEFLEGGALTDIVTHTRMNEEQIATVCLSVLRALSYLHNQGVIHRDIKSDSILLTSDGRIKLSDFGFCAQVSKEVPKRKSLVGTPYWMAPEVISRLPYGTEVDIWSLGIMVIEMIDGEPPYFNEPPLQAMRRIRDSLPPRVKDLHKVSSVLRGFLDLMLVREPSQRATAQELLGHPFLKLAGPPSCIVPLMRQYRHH
# [25] = target: Mitogen-activated protein kinase kinase kinase 13 (Homo sapiens) (UniProt O43283); settings: Compound concentration 1000.0 nM
# Sequence of Mitogen-activated protein kinase kinase kinase 13 (Homo sapiens) (O43283 whole entry): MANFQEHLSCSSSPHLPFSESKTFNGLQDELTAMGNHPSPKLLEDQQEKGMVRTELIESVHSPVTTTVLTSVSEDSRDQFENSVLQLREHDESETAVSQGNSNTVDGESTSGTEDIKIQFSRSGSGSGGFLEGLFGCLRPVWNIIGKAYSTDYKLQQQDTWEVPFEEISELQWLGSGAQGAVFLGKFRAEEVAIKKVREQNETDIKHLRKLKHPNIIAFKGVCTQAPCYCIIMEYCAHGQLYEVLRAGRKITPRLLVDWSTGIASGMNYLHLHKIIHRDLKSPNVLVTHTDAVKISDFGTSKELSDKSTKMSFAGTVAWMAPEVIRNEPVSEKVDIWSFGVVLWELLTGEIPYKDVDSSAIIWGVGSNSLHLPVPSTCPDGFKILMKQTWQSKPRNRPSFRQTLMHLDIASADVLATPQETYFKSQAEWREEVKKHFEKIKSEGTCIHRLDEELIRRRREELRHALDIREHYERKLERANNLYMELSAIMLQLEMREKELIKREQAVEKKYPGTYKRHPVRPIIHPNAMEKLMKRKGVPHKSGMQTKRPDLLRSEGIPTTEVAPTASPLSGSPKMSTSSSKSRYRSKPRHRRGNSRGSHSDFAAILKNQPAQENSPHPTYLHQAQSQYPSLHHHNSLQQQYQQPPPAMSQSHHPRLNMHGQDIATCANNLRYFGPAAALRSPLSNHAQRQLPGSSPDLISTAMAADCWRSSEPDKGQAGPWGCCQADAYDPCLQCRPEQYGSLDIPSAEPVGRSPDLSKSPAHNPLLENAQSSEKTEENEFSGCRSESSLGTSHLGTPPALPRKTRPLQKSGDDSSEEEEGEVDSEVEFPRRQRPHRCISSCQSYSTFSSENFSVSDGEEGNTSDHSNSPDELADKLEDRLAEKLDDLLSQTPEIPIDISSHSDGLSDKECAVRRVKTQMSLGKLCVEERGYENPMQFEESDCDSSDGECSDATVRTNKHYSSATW
# [26] = target: Tyrosine-protein kinase ZAP-70 (Homo sapiens) (UniProt P43403); settings: Compound concentration 1000.0 nM
# [27] = target: Vascular endothelial growth factor receptor 3 (Homo sapiens) (UniProt P35916); settings: Compound concentration 1000.0 nM
# [28] = target: Ribosomal protein S6 kinase alpha-1 (Homo sapiens) (UniProt Q15418); settings: Compound concentration 1000.0 nM
# Sequence of Ribosomal protein S6 kinase alpha-1 (Homo sapiens) (Q15418 whole entry): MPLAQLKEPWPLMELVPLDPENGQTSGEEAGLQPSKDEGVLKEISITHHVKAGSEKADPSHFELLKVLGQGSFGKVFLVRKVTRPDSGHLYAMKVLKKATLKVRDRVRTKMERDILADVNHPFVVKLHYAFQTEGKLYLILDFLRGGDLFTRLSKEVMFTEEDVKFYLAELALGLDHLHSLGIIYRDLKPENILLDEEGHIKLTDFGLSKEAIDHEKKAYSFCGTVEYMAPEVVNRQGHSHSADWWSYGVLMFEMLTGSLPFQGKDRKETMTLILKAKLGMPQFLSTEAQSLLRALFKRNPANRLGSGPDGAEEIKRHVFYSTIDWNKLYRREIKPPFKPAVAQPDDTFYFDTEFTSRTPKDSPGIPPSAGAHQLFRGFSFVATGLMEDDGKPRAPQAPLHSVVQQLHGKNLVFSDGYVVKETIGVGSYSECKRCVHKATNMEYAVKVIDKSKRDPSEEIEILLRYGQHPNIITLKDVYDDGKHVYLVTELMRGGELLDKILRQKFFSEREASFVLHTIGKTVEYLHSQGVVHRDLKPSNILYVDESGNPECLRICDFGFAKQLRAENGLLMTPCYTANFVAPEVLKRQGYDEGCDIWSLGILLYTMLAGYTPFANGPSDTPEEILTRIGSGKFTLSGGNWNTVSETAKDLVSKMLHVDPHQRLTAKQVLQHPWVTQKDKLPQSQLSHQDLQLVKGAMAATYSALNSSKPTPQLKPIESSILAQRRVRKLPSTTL
# [29] = target: Mitogen-activated protein kinase kinase kinase kinase 4 (Homo sapiens) (UniProt O95819); settings: Compound concentration 1000.0 nM
# [30] = target: Protein kinase C eta type (Homo sapiens) (UniProt P24723); settings: Compound concentration 1000.0 nM
# [31] = target: Phosphatidylinositol 4,5-bisphosphate 3-kinase catalytic subunit alpha isoform (Homo sapiens) (UniProt P42336); settings: Compound concentration 1000.0 nM
# [32] = tested on: Epidermal growth factor receptor (Homo sapiens), P00533 [UNDEFINED MUTATION]; settings: Compound concentration 1000.0 nM
# [33] = target: Serine/threonine-protein kinase TBK1 (Homo sapiens) (UniProt Q9UHD2); settings: Compound concentration 1000.0 nM
# [34] = target: Proto-oncogene tyrosine-protein kinase ROS (Homo sapiens) (UniProt P08922); settings: Compound concentration 1000.0 nM
# [35] = target: Serine/threonine-protein kinase SIK1 (Homo sapiens) (UniProt P57059); settings: Compound concentration 1000.0 nM
# [36] = target: Inhibitor of nuclear factor kappa-B kinase subunit epsilon (Homo sapiens) (UniProt Q14164); settings: Compound concentration 1000.0 nM
# [37] = target: Bone morphogenetic protein receptor type-1B (Homo sapiens) (UniProt O00238); settings: Compound concentration 1000.0 nM
# [38] = target: Serine/threonine-protein kinase Sgk1 (Homo sapiens) (UniProt O00141); settings: Compound concentration 1000.0 nM
# [39] = target: Tyrosine-protein kinase FRK (Homo sapiens) (UniProt P42685); settings: Compound concentration 1000.0 nM
# [40] = tested on: Tyrosine-protein kinase ABL1 (Homo sapiens), P00519 [F317L]; settings: Compound concentration 1000.0 nM
# T1 sequence (P08581 whole entry): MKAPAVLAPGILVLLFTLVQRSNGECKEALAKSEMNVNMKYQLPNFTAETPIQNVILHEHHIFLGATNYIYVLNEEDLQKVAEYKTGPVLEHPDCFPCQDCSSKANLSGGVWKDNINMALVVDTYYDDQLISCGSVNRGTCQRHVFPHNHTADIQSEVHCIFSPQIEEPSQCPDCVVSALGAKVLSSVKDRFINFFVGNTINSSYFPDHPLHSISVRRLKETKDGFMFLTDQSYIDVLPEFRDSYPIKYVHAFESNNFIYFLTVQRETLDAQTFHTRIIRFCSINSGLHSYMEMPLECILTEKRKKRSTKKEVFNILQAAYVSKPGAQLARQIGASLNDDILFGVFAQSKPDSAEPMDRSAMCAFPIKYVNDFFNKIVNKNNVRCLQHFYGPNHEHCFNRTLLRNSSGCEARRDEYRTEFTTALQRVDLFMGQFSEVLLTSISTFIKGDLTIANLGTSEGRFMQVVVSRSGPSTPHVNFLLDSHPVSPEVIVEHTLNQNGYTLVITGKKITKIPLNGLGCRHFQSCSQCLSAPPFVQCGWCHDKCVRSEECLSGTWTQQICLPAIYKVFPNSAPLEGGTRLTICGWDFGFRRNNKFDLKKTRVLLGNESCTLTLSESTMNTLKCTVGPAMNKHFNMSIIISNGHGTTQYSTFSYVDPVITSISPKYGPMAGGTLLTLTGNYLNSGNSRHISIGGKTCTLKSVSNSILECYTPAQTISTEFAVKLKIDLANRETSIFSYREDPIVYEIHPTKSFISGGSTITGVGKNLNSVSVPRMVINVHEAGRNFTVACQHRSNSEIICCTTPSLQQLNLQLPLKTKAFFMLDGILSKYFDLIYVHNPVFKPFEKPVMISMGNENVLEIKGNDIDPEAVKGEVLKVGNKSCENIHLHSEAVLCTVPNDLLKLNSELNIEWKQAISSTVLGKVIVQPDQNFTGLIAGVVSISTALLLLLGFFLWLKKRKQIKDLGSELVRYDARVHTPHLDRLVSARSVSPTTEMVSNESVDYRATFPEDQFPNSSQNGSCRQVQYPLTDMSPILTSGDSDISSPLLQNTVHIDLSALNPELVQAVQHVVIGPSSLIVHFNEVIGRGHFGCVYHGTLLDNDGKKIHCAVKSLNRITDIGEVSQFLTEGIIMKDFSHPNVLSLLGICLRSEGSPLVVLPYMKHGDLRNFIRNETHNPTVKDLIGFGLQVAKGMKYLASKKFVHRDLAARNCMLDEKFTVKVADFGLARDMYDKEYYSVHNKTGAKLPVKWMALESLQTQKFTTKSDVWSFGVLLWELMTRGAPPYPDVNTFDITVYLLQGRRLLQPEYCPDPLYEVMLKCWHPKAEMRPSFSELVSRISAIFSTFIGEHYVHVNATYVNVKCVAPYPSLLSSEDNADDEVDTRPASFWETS
smiles,measurement,setting,value
CC1=C(C#N)C(c2ccc3[nH]nc(C)c3c2)C(C#N)=C(C)N1 [BAY-474],inhibition,[1],82%
same,inhibition,[2],22%
same,inhibition,[3],7%
same,IC50,[4],2.9 nM (active)
same,inhibition,[5],15%
same,inhibition,[6],0%
same,inhibition,[7],2%
same,inhibition,[8],14%
same,inhibition,[9],-1%
same,inhibition,[10],7%
same,inhibition,[11],-5%
same,inhibition,[12],-4%
CC1=C(C#N)[C@@H](c2ccc3[nH]nc(C)c3c2)C(C#N)=C(c2ccc(Cl)cc2)N1 [BAY-827],residual activity,[13],52.6%
same,residual activity,[14],89.5%
same,residual activity,[15],77.4%
same,residual activity,[16],100%
same,residual activity,[17],100%
same,residual activity,[18],100%
same,residual activity,[19],85.2%
same,residual activity,[20],100%
same,residual activity,[21],66.8%
same,residual activity,[22],100%
same,residual activity,[23],100%
same,residual activity,[24],100%
same,residual activity,[25],100%
same,residual activity,[26],85.4%
same,residual activity,[27],89.5%
same,residual activity,[28],100%
same,residual activity,[29],100%
same,residual activity,[30],96.1%
same,residual activity,[31],100%
same,residual activity,[32],100%
same,residual activity,[33],58.7%
same,residual activity,[34],100%
same,residual activity,[35],100%
same,residual activity,[36],100%
same,residual activity,[37],100%
same,residual activity,[38],100%
same,residual activity,[39],100%
same,residual activity,[40],94.2%
